Data published in patent publication US7973061B2, “Anaplastic lymphoma kinase modulators and methods of use” (Exelixis, Inc., priority 2004, dated 2011).

Molecular target: T1, ALK (baculovirus expressed human ALK kinase domain F1098-K1410) (Homo sapiens, UniProt Q9UM73)
T1 construct: human ALK kinase domain F1098-K1410; made in house
Assay: biochemical
Settings: 1 μM ATP, 4 μM poly-AEKY, 12 nM ALK, 2 hours at ambient temperature; read-out: ALK IC50
In short: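 Inhibitors were tested at 10 concentrations, and IC50 was derived from a sigmoidal fit (Min, Max, Hill slope). Kinase activity was measured as percent ATP left after a 2 h reaction at room temperature, detected by luciferase-luciferin chemiluminescence. The ATP level was set close to KM for the ALK kinase domain F1098-K1410.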

T1 sequence (Q9UM73 1098-1410): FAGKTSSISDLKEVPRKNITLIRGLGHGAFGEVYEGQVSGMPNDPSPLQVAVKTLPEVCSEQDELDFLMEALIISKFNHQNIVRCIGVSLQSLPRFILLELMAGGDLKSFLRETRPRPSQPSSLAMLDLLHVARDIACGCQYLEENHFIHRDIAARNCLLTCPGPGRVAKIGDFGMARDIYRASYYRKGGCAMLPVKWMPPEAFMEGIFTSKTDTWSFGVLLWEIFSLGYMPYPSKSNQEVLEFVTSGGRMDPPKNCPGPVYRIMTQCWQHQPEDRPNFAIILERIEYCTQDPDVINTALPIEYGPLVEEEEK

IC50 [nM] | SMILES
50 to 500 | CCC(C)CNC(=O)c1csc(CNC(=O)COc2ccc(OC(F)(F)F)cc2)n1 (stereo not shown) [Entry 210, N-(2-methylbutyl)-2-({[({4-[(trifluoromethyl)oxy]phenyl}oxy)acetyl]amino}methyl)-1,3-thiazole-4-carboxamide]
50 to 500 | CC1CCCCC1NC(=O)c1csc(CNC(=O)COc2ccc(OC(F)(F)F)cc2)n1 (stereo not shown) [Entry 87, N-(2-methylcyclohexyl)-2-({[({4-[(trifluoromethyl)oxy]phenyl}oxy)acetyl]amino}methyl)-1,3-thiazole-4-carboxamide]
< 50 | O=C(COc1ccc(OC(F)(F)F)cc1)NCc1nc(C(=O)NCCc2cccc(F)c2)cs1 [Entry 14, N-[2-(3-fluorophenyl)ethyl]-2-({[({4-[(trifluoromethyl)oxy]phenyl}oxy)acetyl]amino}methyl)-1,3-thiazole-4-carboxamide]
50 to 500 | O=C(COc1ccc(OC(F)(F)F)cc1)NCc1nc(C(=O)N[C@@H]2CCC[C@H]2OCc2ccccc2)cs1 [Entry 218, N-{(1R,2R)-2-[(phenylmethyl)oxy]cyclopentyl}-2-({[({4-[(trifluoromethyl)oxy]phenyl}oxy)acetyl]amino}methyl)-1,3-thiazole-4-carboxamide]
50 to 500 | O=C(COc1ccc(Cl)cc1)NCc1nc(C(=O)NCCc2ccccc2F)cs1 [Entry 215, 2-[({[(4-chlorophenyl)oxy]acetyl}amino)methyl]-N-[2-(2-fluorophenyl)ethyl]-1,3-thiazole-4-carboxamide]
< 50 | C[C@@H](CNC(=O)c1csc(CNC(=O)COc2ccc(OC(F)(F)F)cc2)n1)c1ccccc1 [Entry 6, N-[(2R)-2-phenylpropyl]-2-({[({4-[(trifluoromethyl)oxy]phenyl}oxy)acetyl]amino}methyl)-1,3-thiazole-4-carboxamide]

Further lines, the molecule ahead of its results:

SMILES | IC50 [nM]
CC(NC(=O)c1csc(CNC(=O)COc2ccc(OC(F)(F)F)cc2)n1)c1ccc(F)cc1 (stereo not shown) [Entry 86, N-[1-(4-fluorophenyl)ethyl]-2-({[({4-[(trifluoromethyl)oxy]phenyl}oxy)acetyl]amino}methyl)-1,3-thiazole-4-carboxamide] | 50 to 500
Cc1ccc(CCNC(=O)c2coc(CNC(=O)COc3ccc(OC(F)(F)F)cc3)n2)cc1 [Entry 225, N-[2-(4-methylphenyl)ethyl]-2-({[({4-[(trifluoromethyl)oxy]phenyl}oxy)acetyl]amino}methyl)-1,3-oxazole-4-carboxamide] | 500 to 2000
O=C(COc1ccc(I)cc1)NCc1nc(C(=O)NCCc2cccc(Cl)c2)cs1 [Entry 16, N-[2-(3-chlorophenyl)ethyl]-2-[({[(4-iodophenyl)oxy]acetyl}amino)methyl]-1,3-thiazole-4-carboxamide] | < 50
O=C(COc1ccc(OC(F)(F)F)cc1)NCc1nc(C(=O)NCc2cccc(F)c2F)cs1 [Entry 116, N-[(2,3-difluorophenyl)methyl]-2-({[({4-[(trifluoromethyl)oxy]phenyl}oxy)acetyl]amino}methyl)-1,3-thiazole-4-carboxamide] | 50 to 500
O=C(COc1ccc(OC(F)(F)F)cc1)NCc1nc(C(=O)N[C@H]2CCCc3ccccc32)cs1 [Entry 79, N-[(1S)-1,2,3,4-tetrahydronaphthalen-1-yl]-2-({[({4-[(trifluoromethyl)oxy]phenyl}oxy)acetyl]amino}methyl)-1,3-thiazole-4-carboxamide] | 50 to 500
O=C(COc1ccc(OC(F)(F)F)cc1)NCc1nc(C(=O)NCc2cc(F)cc(F)c2)cs1 [Entry 126, N-[(3,5-difluorophenyl)methyl]-2-({[({4-[(trifluoromethyl)oxy]phenyl}oxy)acetyl]amino}methyl)-1,3-thiazole-4-carboxamide] | 50 to 500
O=C(COc1ccc(OC(F)(F)F)cc1)NCc1nc(C(=O)NCCc2ccc(F)cc2)cs1 [Entry 24, N-[2-(4-fluorophenyl)ethyl]-2-({[({4-[(trifluoromethyl)oxy]phenyl}oxy)acetyl]amino}methyl)-1,3-thiazole-4-carboxamide] | < 50
